Source: patent US9428519B2, “Acylated derivative of homoharringtonine, preparation method therefor, and application thereof” (HANGZHOU BENSHENG PHARMACEUTICAL CO., LTD., priority 2011, dated 2016)
In brackets after ≈: the same amount, converted by molar mass.

Key:
[1] = tested on: H9 (acute lymphoblastic leukemia, ALL); assay: MTT growth inhibition of leukemia cells, 72 h; type: cell-based, human; conditions: MTT
Text: (§1) Leukemia cell lines: leukemia cell lines: K562/adr (drug-resistant, chronic myeloid leukemia, CML), NB4 (acute promyelocytic leukemia, AML), Kasumi-1 (acute myeloid leukemia M2 type, AML-M2), Jurkat (acute lymphoblastic leukemia, ALL), all of which are donated by Cancer Research Institute of Zhejiang University, China; and H9 (acute lymphoblastic leukemia, ALL), which is purchased from China Center for Type Culture Collection (CCTCC).
(§2) Reagents: The standard sample of homoharringtonine (HHT) is purchased from Taihua Natural Plant Pharmaceutical Co., Ltd., Shaanxi, China, the homoharringtonine derivatives of the present invention.
(§3) Obtaining 6000 well-growing leukemia cells and inoculating them into wells of a 96-well cell culture plate. The culture medium is the 1640 cell culture medium containing 10% fetal bovine serum. After adding the homoharringtonine derivatives of different concentrations and mixing uniformly, placing the plate in a carbon dioxide cell incubator (5% CO2) at 37° C. and incubated for 72 hours. Then the viable cell concentration is determined by the MTT method. In this experiment, the cell viability in control group (not treated with any compound) is set as 100%. On such basis, the cell viability (%) after treatment and the 50% inhibiting concentration of the compound for the leukemia cell growth at 72 hours (IC50 value of 72 hours) are calculated.

[2] = tested on: Jurkat (acute lymphoblastic leukemia, ALL); assay: MTT growth inhibition of leukemia cells, 72 h; type: cell-based, human
Text: as §1, §2, §3

[3] = tested on: K562/adr (drug-resistant, chronic myeloid leukemia, CML); assay: MTT growth inhibition of leukemia cells, 72 h; type: cell-based, human; conditions: MTT
Text: as §1, §2, §3

[4] = tested on: Kasumi-1 (acute myeloid leukemia M2 type, AML-M2); assay: MTT growth inhibition of leukemia cells, 72 h; type: cell-based, human
Text: as §1, §2, §3

[5] = tested on: NB4 (acute promyelocytic leukemia, AML); assay: MTT growth inhibition of leukemia cells, 72 h; type: cell-based, human; conditions: MTT
Text: as §1, §2, §3

[6] = tested on: RPMI8226 (multiple myeloma); assay: MTT growth inhibition of multiple myeloma cells, 72 h; type: cell-based, human
Procedure: Multiple myeloma and lymphoma cell lines: RPMI8226 (multiple myeloma), purchased from Fuxiang Bio-tech Co. Ltd., Shanghai, China.
as §3

A549 (human lung cancer) = assay: MTT growth inhibition of human solid tumor cells, 72 h; type: cell-based
Procedure: (§4) Human solid tumor cell lines: Hep-2 (laryngeal carcinoma), A549 (human lung cancer), CaES-17 (esophageal cancer cell), PC-3 (prostate cancer), CNE (nasopharyngeal carcinoma cell), and SK-OV-3 (ovarian cancer cell), all of which are purchased from China Center For Type Culture Collection; RKO (human colon adenocarcinoma cell), MGC 803 (human gastric cancer cell), MG63 (osteosarcoma) and U87 MG (malignant glioma cell), all of which are purchased from Fuxiang Bio-tech Co. Ltd., Shanghai, China; PANC-1 (pancreatic cancer), Huh7 (human liver cancer cell), Becap37 (human breast cancer cell), and Hela (human cervical cancer cell), all of which are donated by Cancer Research Institute of Zhejiang University, China.
(§5) Obtaining 4000 well-growing human solid tumor cells and inoculating them into wells of a 96-well cell culture plate. The culture medium is DMEM High Glucose cell culture medium containing 10% fetal bovine serum. The plate is placed in a carbon dioxide cell incubator (5% CO2) at 37° C. and incubated for 24 hours. After adding the homoharringtonine derivatives of different concentration and mixing uniformly, the plate is placed in a carbon dioxide cell incubator (5% CO2) at 37° C. and incubated for 72 hours. Then the viable cell concentration is determined by the MTT method and the cell viability (%) after drug treatment is calculated. In this experiment, the cell viability of control group (not treated with any compound) is set as 100%.

[7] = tested on: Becap37 (human breast cancer cell); assay: as above; type: cell-based
Procedure: as §4, §5

[8] = tested on: CNE (nasopharyngeal carcinoma cell); assay: as above; type: cell-based; conditions: MTT
Procedure: as §4, §5

[9] = tested on: CaES-17 (esophageal cancer cell); assay: as above; type: cell-based
Procedure: as §4, §5

[10] = tested on: Hela (human cervical cancer cell); assay: as above; type: cell-based; conditions: MTT
Procedure: as §4, §5

[11] = tested on: Hep-2 (laryngeal carcinoma); assay: as above; type: cell-based
Procedure: as §4, §5

[12] = tested on: Huh7 (human liver cancer cell); assay: as above; type: cell-based
Procedure: as §4, §5

MG63 (osteosarcoma) = assay: as above; type: cell-based
Procedure: as §4, §5

[13] = tested on: MGC 803 (human gastric cancer cell); assay: as above; type: cell-based
Procedure: as §4, §5

[14] = tested on: PANC-1 (pancreatic cancer); assay: as above; type: cell-based
Procedure: as §4, §5

PC-3 (prostate cancer) = assay: as above; type: cell-based; conditions: MTT
Procedure: as §4, §5

[15] = tested on: RKO (human colon adenocarcinoma cell); assay: as above; type: cell-based; conditions: MTT
Procedure: as §4, §5

[16] = tested on: SK-OV-3 (ovarian cancer cell); assay: as above; type: cell-based
Procedure: as §4, §5

[17] = tested on: U87 MG (malignant glioma cell); assay: as above; type: cell-based
Procedure: as §4, §5

COC(=O)C[C@@](CCCC(C)(C)OC(=O)c1cccs1)(OC(=O)c1cccs1)C(=O)O[C@@H]1C(OC)=C[C@]23CCCN2CCc2cc4c(cc2[C@H]13)OCO4 [BS-HH-0572]
IC50 ([1]; Homo sapiens): 0.21 µg/mL (≈ 0.274 µM) | IC90 ([1]; Homo sapiens): 0.48 µg/mL (≈ 0.627 µM) | IC50 ([2]; Homo sapiens, Jurkat): 0.11 µg/mL (≈ 0.144 µM) | IC90 ([2]; Homo sapiens, Jurkat): 7.5 µg/mL (≈ 9.79 µM) | IC50 ([3]; Homo sapiens, K562/Adr): 0.32 µg/mL (≈ 0.418 µM) | IC90 ([3]; Homo sapiens, K562/Adr): 16 µg/mL (≈ 20.9 µM) | IC50 ([4]; Homo sapiens, Kasumi 1, MTT): 0.065 µg/mL (≈ 0.0849 µM) | IC90 ([4]; Homo sapiens, Kasumi 1, MTT): 0.4 µg/mL (≈ 0.522 µM) | IC50 ([5]; Homo sapiens): 0.12 µg/mL (≈ 0.157 µM) | IC90 ([5]; Homo sapiens): 0.4 µg/mL (≈ 0.522 µM) | IC50 ([6]; Homo sapiens, RPMI-8226, MTT): 0.155 µg/mL (≈ 0.202 µM) | IC90 ([6]; Homo sapiens, RPMI-8226, MTT): 1.13 µg/mL (≈ 1.48 µM) | IC50 (A549 (human lung cancer); Homo sapiens, A549): 0.48 µg/mL (≈ 0.627 µM) | IC90 (A549 (human lung cancer); Homo sapiens, A549): > 16 µg/mL | IC50 ([7]; Homo sapiens): 0.2 µg/mL (≈ 0.261 µM) | IC90 ([7]; Homo sapiens): 9.75 µg/mL (≈ 12.7 µM) | IC50 ([8]; Homo sapiens): 0.35 µg/mL (≈ 0.457 µM) | IC90 ([8]; Homo sapiens): 14.3 µg/mL (≈ 18.6 µM) | IC50 ([9]; Homo sapiens, CaEs17): 0.74 µg/mL (≈ 0.966 µM) | IC90 ([9]; Homo sapiens, CaEs17): 16 µg/mL (≈ 20.9 µM) | IC50 ([10]; Homo sapiens, HeLa): 0.45 µg/mL (≈ 0.588 µM) | IC90 ([10]; Homo sapiens, HeLa): 11.5 µg/mL (≈ 15.1 µM) | IC50 ([11]; Homo sapiens, HEp-2): 0.23 µg/mL (≈ 0.3 µM) | IC90 ([11]; Homo sapiens, HEp-2): > 16 µg/mL | IC50 ([12]; Homo sapiens, Huh-7): 0.17 µg/mL (≈ 0.222 µM) | IC90 ([12]; Homo sapiens, Huh-7): 1.7 µg/mL (≈ 2.22 µM) | IC50 (MG63 (osteosarcoma); Homo sapiens, MG-63, MTT): 0.2 µg/mL (≈ 0.261 µM) | IC90 (MG63 (osteosarcoma); Homo sapiens, MG-63, MTT): 4.75 µg/mL (≈ 6.2 µM) | IC50 ([13]; Homo sapiens, MGC-803): 0.24 µg/mL (≈ 0.313 µM) | IC90 ([13]; Homo sapiens, MGC-803): 1.62 µg/mL (≈ 2.12 µM) | IC50 ([14]; Homo sapiens, PANC-1, MTT): 0.43 µg/mL (≈ 0.561 µM) | IC90 ([14]; Homo sapiens, PANC-1, MTT): 12.6 µg/mL (≈ 16.4 µM) | IC50 (PC-3 (prostate cancer); Homo sapiens): 1.84 µg/mL (≈ 2.4 µM) | IC90 (PC-3 (prostate cancer); Homo sapiens): > 16 µg/mL | IC50 ([15]; Homo sapiens): 0.12 µg/mL (≈ 0.157 µM) | IC90 ([15]; Homo sapiens): 0.56 µg/mL (≈ 0.731 µM) | IC50 ([16]; Homo sapiens, SK-OV-3, MTT): 0.98 µg/mL (≈ 1.28 µM) | IC90 ([16]; Homo sapiens, SK-OV-3, MTT): > 16 µg/mL | IC50 ([17]; Homo sapiens, U-87 MG): 0.23 µg/mL (≈ 0.3 µM) | IC90 ([17]; Homo sapiens, U-87 MG): 0.99 µg/mL (≈ 1.29 µM)

COC(=O)C[C@@](CCCC(C)(C)OC(=O)c1ccccc1)(OC(=O)c1ccccc1)C(=O)O[C@@H]1C(OC)=C[C@]23CCCN2CCc2cc4c(cc2[C@H]13)OCO4 [BS-HH-0732]
IC50 H9 [1]: 1.3 µg/mL (≈ 1.72 µM) | IC90 H9 [1]: 3.9 µg/mL (≈ 5.17 µM) | IC50 Jurkat [2]: 1.4 µg/mL (≈ 1.86 µM) | IC90 Jurkat [2]: 6.4 µg/mL (≈ 8.49 µM) | IC50 K562/adr [3]: 2.5 µg/mL (≈ 3.32 µM) | IC90 K562/adr [3]: 6.5 µg/mL (≈ 8.62 µM) | IC50 Kasumi-1 ([4]; MTT): 1.35 µg/mL (≈ 1.79 µM) | IC90 Kasumi-1 ([4]; MTT): 3.56 µg/mL (≈ 4.72 µM) | IC50 NB4 [5]: 1.19 µg/mL (≈ 1.58 µM) | IC90 NB4 [5]: 2.47 µg/mL (≈ 3.28 µM) | IC50 RPMI8226 ([6]; MTT): 1.15 µg/mL (≈ 1.53 µM) | IC90 RPMI8226 ([6]; MTT): 3.84 µg/mL (≈ 5.09 µM) | IC50 A549 (A549 (human lung cancer)): 5.4 µg/mL (≈ 7.16 µM) | IC90 A549 (A549 (human lung cancer)): >16 µg/mL | IC50 Becap37 [7]: 2.9 µg/mL (≈ 3.85 µM) | IC90 Becap37 [7]: 12.7 µg/mL (≈ 16.8 µM) | IC50 CNE [8]: 3.91 µg/mL (≈ 5.19 µM) | IC90 CNE [8]: >16 µg/mL | IC50 CaES-17 [9]: 3.93 µg/mL (≈ 5.21 µM) | IC90 CaES-17 [9]: 16 µg/mL (≈ 21.2 µM) | IC50 Hela [10]: 2.61 µg/mL (≈ 3.46 µM) | IC90 Hela [10]: 8.37 µg/mL (≈ 11.1 µM) | IC50 Hep-2 [11]: 3.46 µg/mL (≈ 4.59 µM) | IC90 Hep-2 [11]: >16 µg/mL | IC50 Huh7 [12]: 4.8 µg/mL (≈ 6.37 µM) | IC90 Huh7 [12]: 14.5 µg/mL (≈ 19.2 µM) | IC50 MG 63 (MG63 (osteosarcoma); MTT): 1.34 µg/mL (≈ 1.78 µM) | IC90 MG 63 (MG63 (osteosarcoma); MTT): 9.88 µg/mL (≈ 13.1 µM) | IC50 MGC 803 [13]: 2.7 µg/mL (≈ 3.58 µM) | IC90 MGC 803 [13]: 9.92 µg/mL (≈ 13.2 µM) | IC50 PANC-1 ([14]; MTT): 5.8 µg/mL (≈ 7.69 µM) | IC90 PANC-1 ([14]; MTT): 16 µg/mL (≈ 21.2 µM) | IC50 PC-3 (PC-3 (prostate cancer)): 3.97 µg/mL (≈ 5.27 µM) | IC90 PC-3 (PC-3 (prostate cancer)): 16 µg/mL (≈ 21.2 µM) | IC50 RKO [15]: 1.4 µg/mL (≈ 1.86 µM) | IC90 RKO [15]: 5.24 µg/mL (≈ 6.95 µM) | IC50 SK-OV-3 ([16]; MTT): 6.71 µg/mL (≈ 8.9 µM) | IC90 SK-OV-3 ([16]; MTT): >16 µg/mL | IC50 U87 MG [17]: 2 µg/mL (≈ 2.65 µM) | IC90 U87 MG [17]: 8.54 µg/mL (≈ 11.3 µM)
